{"source": "patent US20200055839A1", "about": "(priority 2017, published 2020)"}
{"test_system": "NL-RLuc virus", "experiment": "Inhibition of HIV replication (NL-RLuc virus, luciferase readout in MT-2 cells)", "format": "cell-based", "conditions": "Human immunodeficiency virus 1, MT2, 120 h, MT-2 cells infected with NL-RLuc virus, 5 days of incubation, 10% FBS, at least 2 experiments", "procedure,_shortened": "(§1)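 EC50 derived via median effect equation from at least 2 experiments, using luciferase expression as virus-growth readout. Replication-competent NL-RLuc reporter virus (nef partly replaced by Renilla luciferase) infected MT-2 cells with serial compound dilutions; 5-day incubation in RPMI 1640 plus 10% FBS.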", "units": {"EC50": "nM"}}
{"smiles": "COc1nc(OCC(C)C)ccc1-c1cnc(C)c([C@H](OC(C)(C)C)C(=O)O)c1N1CCC(C)(C)CC1", "note": "[Example 413, (S)-2-(tert-Butoxy)-2-(4-(4,4-dimethylpiperidin-1-yl)-6′-isobutoxy-2′-methoxy-6-methyl-[3,3′-bipyridin]-5-yl)acetic acid]", "EC50": 16}
{"smiles": "CCCCNc1ncc(-c2cnc(C)c([C@H](OC(C)(C)C)C(=O)O)c2N2CCC(C)(C)CC2)cc1F", "note": "[Example 414, (S)-2-(tert-Butoxy)-2-(6′-(butylamino)-4-(4,4-dimethylpiperidin-1-yl)-5′-fluoro-6-methyl-[3,3′-bipyridin]-5-yl)acetic acid]", "EC50": 3}
{"smiles": "Cc1ncc(-c2cnc(NCC(C)C)c(F)c2)c(N2CCC(C)(C)CC2)c1[C@H](OC(C)(C)C)C(=O)O", "note": "[Example 415, (S)-2-(tert-Butoxy)-2-(4-(4,4-dimethylpiperidin-1-yl)-5′-fluoro-6′-(isobutylamino)-6-methyl-[3, 3′-bipyridin]-5-yl)acetic acid]", "EC50": 2}
{"smiles": "Cc1ncc(-c2cnc(OCC(C)C)c(Cl)c2)c(N2CCC(C)(C)CC2)c1[C@H](OC(C)(C)C)C(=O)O", "note": "[Example 417, (S)-2-(tert-Butoxy)-2-(5′-chloro-4-(4,4-dimethylpiperidin-1-yl)-6′-isobutoxy-6-methyl-[3,3′-bipyridin]-5-yl)acetic acid]", "EC50": 12}
{"smiles": "Cc1nc(OCC(C)C)ccc1-c1cnc(C)c([C@H](OC(C)(C)C)C(=O)O)c1N1CCC(C)(C)CC1", "note": "[Example 418, (S)-2-(tert-Butoxy)-2-(4-(4,4-dimethylpiperidin-1-yl)-6′-isobutoxy-2′,6-dimethyl-[3, 3′-bipyridin]-5-yl)acetic acid]", "EC50": 107}
{"smiles": "Cc1ncc(-c2cncc(CCC(C)C)c2)c(N2CCC(C)(C)CC2)c1[C@H](OC(C)(C)C)C(=O)O", "note": "[Example 419, (S)-2-(tert-Butoxy)-2-(4-(4,4-dimethylpiperidin-1-yl)-5′-isopentyl-6-methyl-[3, 3′-bipyridin]-5-yl)acetic acid]", "EC50": 31}
{"smiles": "Cc1ncc(-c2ccc(CCC(C)C)nc2)c(N2CCC(C)(C)CC2)c1[C@H](OC(C)(C)C)C(=O)O", "note": "[Example 420, (S)-2-(tert-Butoxy)-2-(4-(4,4-dimethylpiperidin-1-yl)-6′-isopentyl-6-methyl-[3, 3′-bipyridin]-5-yl)acetic acid]", "EC50": 13}
{"smiles": "Cc1ncc(-c2ccc(/C=C/C(C)C)nc2)c(N2CCC(C)(C)CC2)c1[C@H](OC(C)(C)C)C(=O)O", "note": "[Example 421, (S,E)-2-(tert-Butoxy)-2-(4-(4,4-dimethylpiperidin-1-yl)-6-methyl-6′-(3-methylbut-1-en-1-yl)-[3, 3′-bipyridin]-5-yl)acetic acid]", "EC50": 8}
{"smiles": "Cc1ncc(-c2ccc(/C=C\\C(C)C)nc2)c(N2CCC(C)(C)CC2)c1[C@H](OC(C)(C)C)C(=O)O", "note": "[Example 422, (S,Z)-2-(tert-Butoxy)-2-(4-(4,4-dimethylpiperidin-1-yl)-6-methyl-6′-(3-methylbut-1-en-1-yl)-[3, 3′-bipyridin]-5-yl)acetic acid]", "EC50": 10}
{"smiles": "Cc1cccc(Cl)c1COc1ccc(-c2cnc(C)c([C@H](OC(C)(C)C)C(=O)O)c2N2CCC(C)(C)CC2)cn1", "note": "[Example 423, (S)-2-(tert-Butoxy)-2-(6′-((2-chloro-6-methylbenzyl)oxy)-4-(4,4-dimethylpiperidin-1-yl)-6-methyl-[3, 3′-bipyridin]-5-yl)acetic acid]", "EC50": 8}
{"smiles": "Cc1cccc(Cl)c1C(C)Oc1ccc(-c2cnc(C)c([C@H](OC(C)(C)C)C(=O)O)c2N2CCC(C)(C)CC2)cn1", "note": "(stereo partly drawn) [Example 424, (2S)-2-(tert-Butoxy)-2-(6′-(1-(2-chloro-6-methylphenyl)ethoxy)-4-(4,4-dimethylpiperidin-1-yl)-6-methyl-[3, 3′-bipyridin]-5-yl)acetic acid]", "EC50": 16}
{"smiles": "Cc1nc(OCC(C)C)c(Cl)cc1-c1cnc(C)c([C@H](OC(C)(C)C)C(=O)O)c1N1CCC(C)(C)CC1", "note": "[Example 425, (S)-2-(tert-Butoxy)-2-(5′-chloro-4-(4,4-dimethylpiperidin-1-yl)-6′-isobutoxy-2′,6-dimethyl-[3, 3′-bipyridin]-5-yl)acetic acid]", "EC50": 126}
{"smiles": "CCCCOc1ccc(-c2cnc(C)c([C@H](OC(C)(C)C)C(=O)O)c2N2CCC(C)(C)CC2)cn1", "note": "[Example 426, (S)-2-tert-Butoxy-2-(6′-butoxy-4-(4,4-dimethylpiperidin-1-yl)-6-methyl-3, 3′-bipyridin-5-yl)acetic acid]", "EC50": 0.3}
{"smiles": "Cc1ncc(-c2ccc(OCCC(C)C)nc2)c(N2CCC(C)(C)CC2)c1[C@H](OC(C)(C)C)C(=O)O", "note": "[Example 427, (S)-2-tert-Butoxy-2-(4-(4,4-dimethylpiperidin-1-yl)-6′-(isopentyloxy)-6-methyl-3, 3′-bipyridin-5-yl)acetic acid]", "EC50": 2}
{"smiles": "Cc1cc(-c2cnc(C)c([C@H](OC(C)(C)C)C(=O)O)c2N2CCC(C)(C)CC2)cnc1OCC(C)C", "note": "[Example 428, (S)-2-tert-Butoxy-2-(4-(4,4-dimethylpiperidin-1-yl)-6′-isobutoxy-5′,6-dimethyl-3, 3′-bipyridin-5-yl)acetic acid]", "EC50": 7}
{"smiles": "Cc1cc(OCC(C)C)ncc1-c1cnc(C)c([C@H](OC(C)(C)C)C(=O)O)c1N1CCC(C)(C)CC1", "note": "[Example 429, (2S)-2-tert-Butoxy-2-(4-(4,4-dimethylpiperidin-1-yl)-6′-isobutoxy-4′,6-dimethyl-3, 3′-bipyridin-5-yl)acetic acid]", "EC50": 219}
{"smiles": "Cc1ncc(-c2ccc(C(F)(F)CC(C)C)nc2)c(N2CCC(C)(C)CC2)c1[C@H](OC(C)(C)C)C(=O)O", "note": "[Example 430, (S)-2-tert-Butoxy-2-(6′-(1,1-difluoro-3-methylbutyl)-4-(4,4-dimethylpiperidin-1-yl)-6-methyl-3, 3′-bipyridin-5-yl)acetic acid]", "EC50": 16}
{"smiles": "Cc1ncc(-c2ccc(OCC(C)C)nc2Cl)c(N2CCC(C)(C)CC2)c1[C@H](OC(C)(C)C)C(=O)O", "note": "[Example 431, (2S)-2-tert-Butoxy-2-(2′-chloro-4-(4,4-dimethylpiperidin-1-yl)-6′-isobutoxy-6-methyl-3, 3′-bipyridin-5-yl)acetic acid]", "EC50": 32}
{"smiles": "Cc1ncc(-c2ccc([C@@H](O)CC(C)C)nc2)c(N2CCC(C)(C)CC2)c1[C@H](OC(C)(C)C)C(=O)O", "note": "[Example 432, (S)-2-tert-Butoxy-2-(4-(4,4-dimethylpiperidin-1-yl)-6′-((S)-1-hydroxy-3-methylbutyl)-6-methyl-3, 3′-bipyridin-5-yl)acetic acid]", "EC50": 32}
{"smiles": "Cc1ncc(-c2ccc([C@H](O)CC(C)C)nc2)c(N2CCC(C)(C)CC2)c1[C@H](OC(C)(C)C)C(=O)O", "note": "[Example 433, (S)-2-tert-butoxy-2-(4-(4,4-dimethylpiperidin-1-yl)-6′-((R)-1-hydroxy-3-methylbutyl)-6-methyl-3,3′-bipyridin-5-yl)acetic acid]", "EC50": 25}
{"smiles": "Cc1ncc(-c2ccc(OCC(C)C)nc2F)c(N2CCC(C)(C)CC2)c1[C@H](OC(C)(C)C)C(=O)O", "note": "[Example 434, (2S)-2-tert-Butoxy-2-(4-(4,4-dimethylpiperidin-1-yl)-2′-fluoro-6′-isobutoxy-6-methyl-3, 3′-bipyridin-5-yl)acetic acid]", "EC50": 13}
{"smiles": "Cc1ncc(-c2ccc(F)nc2OCC(C)C)c(N2CCC(C)(C)CC2)c1[C@H](OC(C)(C)C)C(=O)O", "note": "[Example 435, (2S)-2-tert-Butoxy-2-(4-(4,4-dimethylpiperidin-1-yl)-6′-fluoro-2′-isobutoxy-6-methyl-3, 3′-bipyridin-5-yl)acetic acid]", "EC50": 501}
{"smiles": "Cc1ncc(-c2ccc(NCC(C)C)nc2)c(N2CCC(C)(C)CC2)c1[C@H](OC(C)(C)C)C(=O)O", "note": "[Example 436, (S)-2-tert-Butoxy-2-(4-(4,4-dimethylpiperidin-1-yl)-6′-(isobutylamino)-6-methyl-3, 3′-bipyridin-5-yl)acetic acid]", "EC50": 7}
{"smiles": "CCCCNc1ccc(-c2cnc(C)c([C@H](OC(C)(C)C)C(=O)O)c2N2CCC(C)(C)CC2)cn1", "note": "[Example 437, (S)-2-tert-Butoxy-2-(6′-(butylamino)-4-(4,4-dimethylpiperidin-1-yl)-6-methyl-3, 3′-bipyridin-5-yl)acetic acid]", "EC50": 9}
{"smiles": "Cc1ncc(-c2ccc(OC(C)C(C)C)nc2)c(N2CCC(C)(C)CC2)c1[C@H](OC(C)(C)C)C(=O)O", "note": "(stereo partly drawn) [Example 438, (2S)-2-tert-Butoxy-2-(4-(4,4-dimethylpiperidin-1-yl)-6-methyl-6′-(3-methylbutan-2-yloxy)-3, 3′-bipyridin-5-yl)acetic acid]", "EC50": 14}
{"smiles": "Cc1ncc(-c2ccc(OC(C)CC(C)C)nc2)c(N2CCC(C)(C)CC2)c1[C@H](OC(C)(C)C)C(=O)O", "note": "(stereo partly drawn) [Example 439, (2S)-2-tert-Butoxy-2-(4-(4,4-dimethylpiperidin-1-yl)-6-methyl-6′-(4-methylpentan-2-yloxy)-3, 3′-bipyridin-5-yl)acetic acid]", "EC50": 15}
{"smiles": "CCCCNc1ccc(-c2cnc(C)c([C@H](OC(C)(C)C)C(=O)O)c2N2CCC(C)(C)CC2)nc1", "note": "[Example 441, (S)-2-(tert-Butoxy)-2-(5-(butylamino)-4′-(4,4-dimethylpiperidin-1-yl)-6′-methyl-[2, 3′-bipyridin]-5′-yl)acetic acid]", "EC50": 7}
{"smiles": "CCCCN(C)c1ccc(-c2cnc(C)c([C@H](OC(C)(C)C)C(=O)O)c2N2CCC(C)(C)CC2)nc1", "note": "[Example 442, (S)-2-(tert-Butoxy)-2-(5-(butyl(methyl)amino)-4′-(4,4-dimethylpiperidin-1-yl)-6′-methyl-[2, 3′-bipyridin]-5′-yl)acetic acid]", "EC50": 5}
{"test_system": "NL-RLuc virus", "experiment": "Inhibition of HIV replication (NL-RLuc virus, luciferase readout in MT-2 cells)", "format": "cell-based", "conditions": "MT-2 cells infected with NL-RLuc virus, 5 days of incubation, 10% FBS, at least 2 experiments", "procedure,_shortened": "as §1", "units": {"EC50": "nM"}}
{"smiles": "Cc1ncc(-c2cnc(NCCc3ccc(F)cc3)c(F)c2)c(N2CCC(C)(C)CC2)c1[C@H](OC(C)(C)C)C(=O)O", "note": "[Example 416, (S)-2-(tert-Butoxy)-2-(4-(4,4-dimethylpiperidin-1-yl)-5′-fluoro-6′-((4-fluorophenethyl)amino)-6-methyl-[3, 3′-bipyridin]-5-yl)acetic acid]", "EC50": 0.6}
